Patent US9125407B2, “Compositions comprising an aryl pyrazole and a substituted imidazole, methods and uses thereof” (MERIAL LIMITED, priority 2011, dated 2015)

Assays:
Rhipicephalus sanguineus [1] = experiment: Tick contact behavioral assay (TCBA), excitatory response in glass vials; conditions: 24 h post-treatment
Procedure: Another screening method used to test compounds of the present invention is the tick contact behavioral assay (TCBA). Compounds that elicit excitatory activity in ticks should increase their motility, thus increasing the parasite's chances of encountering fipronil if fipronil is present.
The TCBA was performed on Rhipicephalus sanguineus in glass vials. Briefly, a paper disc is treated with the desired amount of test compound and placed into the vial with approximately ten ticks. The ticks are observed for excitatory response but are not otherwise stimulated for evaluation.
From these observations, an EC50 for excitatory response is established. Observations were made at 4 h and 24 h post-treatment. […]

Rhipicephalus sanguineus [2] = experiment: Tick mortality in combination with fipronil (25 ppm), 100% mortality at 6 hours; conditions: dose of compound combined with fipronil 25 ppm producing 100% mortality in 6 hours
Procedure: Observations were made at 4 h and 24 h post-treatment.
The compounds were then combined with fipronil (25 ppm) and tested for 100% mortality at 6 hours.

[3] = 14C radiolabeled drug, spot-on, beagle dogs; cited from earlier work
[4] = pH about 5.0 to about 6.0; cited from earlier work

| SMILES | TCBA Assay EC50 (@ 24 h, ppm) (Rhipicephalus sanguineus [1]) [ppm] | Fipronil combination (25 ppm) (6 h mortality) Dose (ppm) (Rhipicephalus sanguineus [2]) | time persistently detected in whole skin after treatment [3] | stability at pH of about 5.0 to about 6.0 [4] |
| --- | --- | --- | --- | --- |
| N#Cc1nn(-c2c(Cl)cc(C(F)(F)F)cc2Cl)c(N)c1[S+]([O-])C(F)(F)F (centres unmarked) [fipronil, 5-amino-3-cyano-1-(2,6-dichloro-4-trifluoromethylphenyl)-4-trifluoromethylsulfinylpyrazole] |  |  | up to 56 days |  |
| Cc1ccc(/N=C/N(C)/C=N/c2ccc(C)cc2C)c(C)c1 [Amitraz, amitraz] | 1.6 | 12.5 |  | degrade |
| Cc1cccc(C(C)c2ncc[nH]2)c1C (centres unmarked) [demiditraz] | 5 | 12.5 |  |  |

Now from value to molecule, other results behind:

| TCBA Assay EC50 (@ 24 h, ppm) (Rhipicephalus sanguineus [1]) [ppm] | SMILES | Fipronil combination (25 ppm) (6 h mortality) Dose (ppm) (Rhipicephalus sanguineus [2]) | time persistently detected in whole skin after treatment [3] | stability at pH of about 5.0 to about 6.0 [4] |
| --- | --- | --- | --- | --- |
| 6 | Cc1cccc2c1CCC2c1ncc[nH]1 (centres unmarked) [ML-449, 1H-imidazole, 2-(2,3-dihydro-4-methyl-1H-inden-1-yl)] | 25 |  |  |
| 6 | Cc1cccc2c1C(c1ncc[nH]1)CC2 (centres unmarked) [1H-imidazole, 2-(2,3-dihydro-7-methyl-1H-inden-1-yl)] |  |  |  |
| 6 | Cc1cccc2c1CCCC2c1ncc[nH]1 (centres unmarked) [2-(5-methyl-1,2,3,4-tetrahydronaphthalen-1-yl)-1H-imidazole] | 25 |  |  |
